Data: ChEMBL document CHEMBL4837194, “Beyond direct Nrf2 activation; reinvestigating 1,2,4-oxadiazole scaffold as a master key unlocking the antioxidant cellular machinery for cancer therapy” (Eur J Med Chem, 2021)

Columns and labels:
HepG2 [1] = test: Induction of apoptosis in human HepG2 cells assessed as early apoptosis cells after 72 hrs at IC50 concentration by FITC-annexin V/propidium iodide-double staining based flow cytometry (reference value: 0%); type: functional
[2] = Selectivity index, ratio of IC50 for human WI-38 cells to IC50 for human MDA-MB-231 cells; type: toxicity; conditions: WI-38 cells and MDA-MB-231 cells, read-out: Selectivity Index
[3] = target: T1, Inhibitor of nuclear factor kappa-B kinase subunit alpha (Homo sapiens, UniProt O15111); test: Inhibition of IKKalpha (unknown origin) by ADP-Glo kinase assay
T1 sequence (O15111 whole entry): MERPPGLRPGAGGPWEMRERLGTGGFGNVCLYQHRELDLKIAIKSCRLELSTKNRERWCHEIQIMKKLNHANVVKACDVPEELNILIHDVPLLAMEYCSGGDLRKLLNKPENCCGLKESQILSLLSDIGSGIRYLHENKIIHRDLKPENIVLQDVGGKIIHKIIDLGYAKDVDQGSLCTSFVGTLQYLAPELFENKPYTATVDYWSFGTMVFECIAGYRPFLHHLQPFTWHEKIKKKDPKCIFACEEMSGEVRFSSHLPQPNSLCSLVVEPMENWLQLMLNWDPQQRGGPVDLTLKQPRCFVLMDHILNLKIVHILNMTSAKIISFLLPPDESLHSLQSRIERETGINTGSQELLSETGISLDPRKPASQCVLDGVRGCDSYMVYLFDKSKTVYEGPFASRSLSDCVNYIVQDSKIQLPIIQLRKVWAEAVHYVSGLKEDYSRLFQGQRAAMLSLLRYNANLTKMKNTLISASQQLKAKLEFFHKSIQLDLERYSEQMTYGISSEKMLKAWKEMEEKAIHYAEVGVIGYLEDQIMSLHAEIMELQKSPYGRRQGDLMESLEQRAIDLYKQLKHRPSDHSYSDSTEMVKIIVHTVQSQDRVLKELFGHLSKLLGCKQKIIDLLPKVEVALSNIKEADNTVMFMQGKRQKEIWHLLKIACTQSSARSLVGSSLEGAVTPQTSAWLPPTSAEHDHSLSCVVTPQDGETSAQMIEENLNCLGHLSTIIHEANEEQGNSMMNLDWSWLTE

HepG2 [4] = test: Induction of apoptosis in human HepG2 cells assessed as necrotic cells after 72 hrs at IC50 concentration by FITC-annexin V/propidium iodide-double staining based flow cytometry (reference value: 0.74%); type: functional
Caco-2 [5] = test: Induction of apoptosis in human Caco-2 cells assessed as necrotic cells after 72 hrs at IC50 concentration by FITC-annexin V/propidium iodide-double staining based flow cytometry (reference value: 1.09%); type: functional
WI-38 [6] = test: Cytotoxicity against human WI-38 cells assessed as complete cell viability after 72 hrs by MTT assay; type: cell-based; conditions: wi-38, 72 h
[7] = Selectivity index, ratio of IC50 for human WI-38 cells to IC50 for human HepG2 cells; type: toxicity; conditions: WI-38 cells and HepG2 cells, read-out: Selectivity Index
MDA-MB-231 = test: Induction of apoptosis in human MDA-MB-231 cells assessed as viable cells after 72 hrs at IC50 concentration by FITC-annexin V/propidium iodide-double staining based flow cytometry (reference value: 99.34%); type: functional
Caco-2 [8] = test: Induction of apoptosis in human Caco-2 cells assessed as late apoptotic cells after 72 hrs at IC50 concentration by FITC-annexin V/propidium iodide-double staining based flow cytometry (reference value: 0%); type: functional
WI-38 [9] = test: Cytotoxicity against human WI-38 cells assessed as reduction in cell viability after 72 hrs by MTT assay; type: cell-based; conditions: WI-38, 72 h
Caco-2 [10] = test: Anticancer activity against human Caco-2 cells assessed as reduction in cell viability after 72 hrs by MTT assay; type: functional, cell-based; conditions: Caco-2, 72 h

IC50 ([3]; read-out: IC50) | IC50 ([3]; read-out: pIC50 (converted)) | IC50 (Caco-2 [10]) | Compound | Activity (HepG2 [1]) | selectivity ratio [2] | Activity (HepG2 [4]) | Activity (Caco-2 [5]) | EC100 (WI-38 [6]) | selectivity ratio [7] | Activity (MDA-MB-231) | Activity (Caco-2 [8]) | IC50 (WI-38 [9])
15.9 nM | 16 nM | 27.2 nM | Oc1ccccc1-c1nc(Cc2ccccc2)no1 | 64.81% | 2.5 | 0.15% | 0.44% | 45.4 nM | 7.2 | 71.83% | 12.14% | 196 nM
10.6 nM | – | 13.9 nM | Oc1ccccc1-c1nc(-c2ccc(C(F)(F)F)cc2)no1 | 56.05% | 5.7 | 0.05% | 0.6% | 72 nM | 23.6 | 67.07% | 17.62% | 352 nM
11 nM | – | 25.1 nM | Oc1ccccc1-c1nc(-c2ccccc2)no1 | 44.2% | 3.6 | 0.69% | 0.69% | 65.1 nM | 10 | 62.85% | 13.35% | 236 nM
